# Assays:
# [1] = molecular target: apolipoprotein(a), [apo(a)], apolipoproteinB-100, [apoB-100], coupling reaction that generates Lp(a) (Homo sapiens, UniProt P04114+P08519); assay: LPABC screen: lipoprotein(a) biochemical coupling assay, Lp(a) content by ELISA; conditions: recombinant apo(a) 17-kringle (293 cell conditioned media) + HepG2 conditioned media, 67 minutes at 37° C., 0.3 to 50 μM compound
# Procedure: The lipoprotein(a), [Lp(a)], biochemical coupling assay (LPABC) is used to characterize inhibitors of the apolipoprotein(a), [apo(a)], apolipoproteinB-100, [apoB-100], coupling reaction that generates Lp(a). Conditioned media from 293 cells (ATCC CRL-1573), permanently transfected with an apo(a) 17-kringle cDNA expression construct (pcDNA-AMP, In Vitrogen, Carlsbad, Calif.) using standard molecular biology techniques, was used as a source of recombinant apo(a) is diluted 1:3 with phosphate buffered saline (PBS) and 90 μL is pipetted into each well of a 96-well plate and placed into 37° C. incubator for 10 minutes. Twenty microliters of a 0.3 to 50 μM solution of a compound of the present invention in PBS is added to the warmed plate. Ninety microliters of HepG2 (ATCC HB-8065) cell conditioned media diluted 1:3 with PBS is added to the apo(a)/compound mixture and mixed by pipetting up and down 5 times. The reaction is incubated for 67 minutes in a 37° C. incubator. A 100 μL aliquot of the reaction is removed and assayed for its Lp(a) content by an enzyme linked immunosorbent assay (ELISA).
# [2] = tested on: Lp(a) production in HepG2^K17 cells; assay: LPA3 screen: inhibition of Lp(a) production in transfected HepG2 cells, Lp(a) in media by ELISA; format: cell-based; conditions: Homo sapiens, 8 hours incubation, 0.3 to 50 μM compound, Lp(a) normalized for total protein
# Procedure: The LPA3 screen is used to identify compounds that inhibit Lp(a) production. This screen employs permanently transfected HepG2 cells (HepG2^K17) that are generated using an apo(a) 17-kringle cDNA expression construct (pcDNA-AMP, In Vitrogen, Carlsbad, Calif.) in accordance with methods that are well-known in molecular biology.
# HepG2^K17 cells are seeded in 96-well plates at a density of 75,000 cells per well in 0.25 mL of Dulbecco's Modified Eagle Media (DMEM) containing 10% fetal bovine serum (FBS). Seeded plates are incubated overnight in a 37° C., 5% CO2/95% O2 incubator. The media is removed, replaced with (1) fresh media, or (2) fresh media plus 0.3 to 50 μM of a compound of the present invention in 20 μL of PBS, and the plates returned to the incubator for 8 hours. After the additional 8 hours of incubation, Lp(a) is assayed in the media by ELISA. Cells are digested with 0.5N NaOH overnight and assayed for total protein. Lp(a) values are normalized for total protein content.
Compound,IC50 [1],melting point,IC50 [2]
"CC(=O)Nc1ccc(S(=O)(=O)N(Cc2cc(C(C)(C)C)c(O)c(C(C)(C)C)c2)c2cccnc2)cc1 [Example 8, N-(3,5-Di-tert-butyl-4-hydroxy-benzyl)-4-acetamido-N-pyridin-3-yl-benzenesulfonamide]",3.5 µM,167 to 169 °C,12.5 µM
"Cc1ccc(S(=O)(=O)N(Cc2cc(C(C)(C)C)c(O)c(C(C)(C)C)c2)c2ccc(Cl)nc2)cc1 [Example 16, N-(6-Chloro-pyridin-3-yl)-N-(3,5-di-tert-butyl-4-hydroxybenzyl)-4-methyl-benzenesulfonamide]",2.1 µM,152 to 153 °C,
"CC(C)(C)c1cc(CN(c2cccnc2)S(=O)(=O)c2ccc3ccccc3c2)cc(C(C)(C)C)c1O [Example 17, N-(3,5-di-tert-butyl-4-hydroxybenzyl)-2-naphthalene-N-pyridin-3-yl-sulfonamide]",7.1 µM,160 to 171 °C,
"Cc1ccc(S(=O)(=O)N(Cc2cc(C(C)(C)C)c(O)c(C(C)(C)C)c2)c2cccnc2Cl)cc1 [Example 14, N-(2-Chloro-pyridin-3-yl)-N-(3,5-di-tert-butyl-4-hydroxy-benzyl)-4-methyl-benzenesulfonamide]",2.1 µM,117 to 119 °C,
"CC(C)(C)c1cc(CN(c2cccnc2)S(=O)(=O)c2ccccc2)cc(C(C)(C)C)c1O [Example 11, N-(3,5-Di-tert-butyl-4-hydroxy-benzyl)-3-N-pyridin-3-yl-benzenesulfonamide]",4.12 µM,143 to 145 °C,16.2 µM
"CC(C)(C)c1cc(CN(c2cccnc2)S(=O)(=O)c2ccc(F)cc2)cc(C(C)(C)C)c1O [Example 4, N-(3,5-Di-tert-butyl-4-hydroxy-benzyl)-4-fluoro-N-pyridin-3-yl-benzenesulfonamide]",2.6 µM,,7.5 µM
"CC(C)(C)c1ccc(S(=O)(=O)N(Cc2cc(C(C)(C)C)c(O)c(C(C)(C)C)c2)c2cccnc2)cc1 [Example 13, N-(3,5-Di-tert-butyl-4-hydroxy-benzyl)-4-tert-butyl-N-pyridin-3-yl-benzenesulfonamide]",11.8 µM,155 to 156 °C,23.6 µM
"CCOC(=O)C(c1cc(C(C)(C)C)c(O)c(C(C)(C)C)c1)N(CC1CCCCC1)S(C)(=O)=O (stereo not drawn) [Example 2, (Cyclohexylmethyl-methanesulfonyl-amino)-(3,5-Di-tert-butyl-4-hydroxy-phenyl)-acetic Acid Ethyl Ester]",1.92 µM,,27.2 µM
"CC(C)(C)c1cc(CN(c2cccnc2)S(=O)(=O)c2cccc(Br)c2)cc(C(C)(C)C)c1O [Example 19, N-(3,5-di-tert-butyl-4-hydroxybenzyl)-3-bromo-N-pyridin-3-yl-benzenesulfonamide]",2.76 µM,129 to 131 °C,
"CC(C)(C)c1cc(CN(c2cccnc2)S(C)(=O)=O)cc(C(C)(C)C)c1O [Example 12, N-(3,5-Di-tert-butyl-4-hydroxy-benzyl)-N-pyridin-3-yl-methanesulfonamide]",5.58 µM,133 to 134 °C,41.2 µM
"Cc1ccc(S(=O)(=O)N(Cc2cc(C(C)(C)C)c(O)c(C(C)(C)C)c2)c2cccnc2)cc1 [Example 3, N-(3,5-Di-tert-butyl-4-hydroxy-benzyl)-4-methyl-N-pyridin-3-yl-benzenesulfonamide]",3.94 µM,121 to 123 °C,6.9 µM
"CC(C)(C)c1cc(CN(c2cccnc2)S(=O)(=O)c2ccc(-c3ccccn3)s2)cc(C(C)(C)C)c1O [Example 1, 5-Pyridin-2-yl-thiophene-2-sulfonic Acid (3,5-di-tert-butyl-4-hydroxy-benzyl)-pyridin-3-yl-amide]",1.66 µM,,
"COc1ccc(S(=O)(=O)N(Cc2cc(C(C)(C)C)c(O)c(C(C)(C)C)c2)c2cccnc2)cc1 [Example 9, N-(3,5-Di-tert-butyl-4-hydroxy-benzyl)-4-methoxy-N-pyridin-3-yl-benzene Sulfonamide]",3.7 µM,142 to 143 °C,5.8 µM

# Continued by falling IC50 [1], values first:
IC50 [1],melting point,Compound,IC50 [2]
4 µM,99 to 107 °C,"CC(C)(C)c1cc(CN(c2cccnc2)S(=O)(=O)c2cccc([N+](=O)[O-])c2)cc(C(C)(C)C)c1O [Example 10, N-(3,5-Di-tert-butyl-4-hydroxy-benzyl)-3-nitro-N-pyridin-3-yl-benzenesulfonamide]",7.4 µM
3.5 µM,118 to 120 °C,"CC(C)(C)c1cc(CN(c2cccnc2)S(=O)(=O)c2cccs2)cc(C(C)(C)C)c1O [Example 7, Thiophene-2-sulfonic Acid (3,5-di-tert-butyl-4-hydroxy-benzyl)-pyridin-3-yl-amide]",8.9 µM
3.15 µM,,"COc1ccc(N(Cc2cc(C(C)(C)C)c(O)c(C(C)(C)C)c2)S(=O)(=O)c2cccs2)cn1 [Example 6, Thiophene-2-sulfonic Acid (3,5-di-tert-butyl-4-hydroxy-benzyl)-6-methoxy-pyridin-3-yl-amide]",
2.6 µM,159 to 160 °C,"CC(C)(C)c1cc(CN(c2cccnc2)S(=O)(=O)c2ccc([N+](=O)[O-])cc2)cc(C(C)(C)C)c1O [Example 5, N-(3,5-Di-tert-butyl-4-hydroxy-benzyl)-4-nitro-N-pyridin-3-yl-benzenesulfonamide]",9.4 µM
2.43 µM,105 to 107 °C,"CC(C)(C)c1cc(CN(c2cccnc2)S(=O)(=O)c2ccccc2Br)cc(C(C)(C)C)c1O [Example 15, N-(3,5-di-tert-butyl-4-hydroxybenzyl)-2-bromo-N-pyridin-3-yl-benzenesulfonamide]",
2.42 µM,127 to 129 °C,"COc1ccc(N(Cc2cc(C(C)(C)C)c(O)c(C(C)(C)C)c2)S(=O)(=O)c2ccc(C)cc2)cn1 [Example 18, N-(3,5-di-tert-butyl-4-hydroxy-benzyl)-N-(6-methoxy-pyridin-3-yl)-4methyl-benzenesulfonamide]",

# Reference: US6458815B2, “Sulfonamide compounds and methods of treating atherosclerosis and restenosis” (Warner-Lambert Company, priority 1998, dated 2002)
